Experimental data from PubChem BioAssay AID330 (DTP/NCI, 2004).
Several values for one entry are separate records, joined by “and”; a condition that tells them apart may be missing. Identical values can stand only once. Toxic doses and inconclusive results are not listed. The calls were made as follows: active = survival T/C of 150% or more; inactive = T/C below 125% in these data.

Tested on: P388 leukemia ip, CD2F1 mice, survival T/C
Test: NCI In Vivo Anticancer Drug Screen. Data for tumor model P388 Leukemia (intraperitoneal) in CD2F1 (CDF1) mice
Conditions: endpoint: median survival time, higher = longer survival
Method in brief: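 Mice carrying the transplanted tumor received test compound or vehicle. Survival was recorded in each group, and the value is the treated-group measurement divided by that of the vehicle-treated control group.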

[1] = dose: 50.0 mg/kg/injection, schedule: Q01DX005 (ip), vehicle: Klucel (hydroxypropylcellulose) (HPC)
[2] = dose: 100.0 mg/kg/injection, schedule: Q01DX005 (ip), vehicle: Klucel (hydroxypropylcellulose) (HPC)
[3] = dose: 50.0 mg/kg/injection, schedule: Q01DX009 (ip), vehicle: saline
[4] = dose: 100.0 mg/kg/injection, schedule: Q04DX003 (ip), vehicle: saline
[5] = dose: 200.0 mg/kg/injection, schedule: Q04DX003 (ip), vehicle: saline
[6] = dose: 400.0 mg/kg/injection, schedule: Q04DX003 (ip), vehicle: saline
[7] = dose: 50.0 mg/kg/injection, schedule: Q01DX005 (ip), vehicle: saline with Tween-80
[8] = dose: 100.0 mg/kg/injection, schedule: Q01DX005 (ip), vehicle: saline with Tween-80
[9] = dose: 200.0 mg/kg/injection, schedule: Q01DX005 (ip), vehicle: saline with Tween-80
[10] = dose: 50.0 mg/kg/injection, schedule: Q01DX001 (ip), vehicle: Klucel (hydroxypropylcellulose) (HPC)
[11] = dose: 100.0 mg/kg/injection, schedule: Q01DX001 (ip), vehicle: Klucel (hydroxypropylcellulose) (HPC)
[12] = dose: 200.0 mg/kg/injection, schedule: Q04DX003 (ip), vehicle: saline with Tween-80
[13] = dose: 200.0 mg/kg/injection, schedule: Q01DX005 (ip), vehicle: Klucel (hydroxypropylcellulose) (HPC)
[14] = dose: 50.0 mg/kg/injection, schedule: Q01DX009 (ip), vehicle: Klucel (hydroxypropylcellulose) (HPC)
[15] = dose: 100.0 mg/kg/injection, schedule: Q01DX009 (ip), vehicle: Klucel (hydroxypropylcellulose) (HPC)
[16] = dose: 200.0 mg/kg/injection, schedule: Q01DX009 (ip), vehicle: Klucel (hydroxypropylcellulose) (HPC)

Measured: T/C

O=[N+]([O-])c1cc2no[n+]([O-])c2cc1N1CCOCC1
inactive: dose: 3.75 mg/kg/injection, schedule: Q01DX009 (ip), vehicle: saline 112 % of control and 88 % of control | dose: 7.5 mg/kg/injection, schedule: Q01DX009 (ip), vehicle: saline 101 % of control and 92 % of control | dose: 15.0 mg/kg/injection, schedule: Q01DX009 (ip), vehicle: saline 91 % of control and 97 % of control | dose: 30.0 mg/kg/injection, schedule: Q01DX009 (ip), vehicle: saline 103 % of control and 96 % of control

COC(C(=O)C(OC(C)=O)C(C)OC(C)=O)C1Cc2cc3cc(OC4CC(OC5CC(OC(C)=O)C(OC(C)=O)C(C)O5)C(OC(C)=O)C(C)O4)c(C)c(OC(C)=O)c3c(OC(C)=O)c2C(=O)C1OC1CC(OC2CC(OC(C)=O)C(OC3CC(C)(OC(C)=O)C(OC(C)=O)C(C)O3)C(C)O2)C(OC(C)=O)C(C)O1 (stereo not given)
inactive: dose: 0.13 mg/kg/injection, schedule: Q01DX009 (ip), vehicle: water 98 % of control | dose: 0.25 mg/kg/injection, schedule: Q01DX009 (ip), vehicle: water 99 % of control | dose: 0.5 mg/kg/injection, schedule: Q01DX009 (ip), vehicle: water 105 % of control | dose: 1.0 mg/kg/injection, schedule: Q01DX009 (ip), vehicle: water 105 % of control | dose: 2.0 mg/kg/injection, schedule: Q01DX009 (ip), vehicle: water 107 % of control | dose: 4.0 mg/kg/injection, schedule: Q01DX009 (ip), vehicle: water 111 % of control | dose: 8.0 mg/kg/injection, schedule: Q01DX009 (ip), vehicle: water 114 % of control | dose: 11.5 mg/kg/injection, schedule: Q01DX009 (ip), vehicle: water 106 % of control | dose: 23.0 mg/kg/injection, schedule: Q01DX009 (ip), vehicle: water 108 % of control | dose: 46.0 mg/kg/injection, schedule: Q01DX009 (ip), vehicle: water 115 % of control

O=C1c2ccccc2C(=O)C2C1C1(c3ccccc3)OC2(c2ccccc2)c2ccccc21 (stereo not given)
inactive: dose: 25.0 mg/kg/injection, schedule: Q01DX005 (ip), vehicle: Klucel (hydroxypropylcellulose) (HPC) 101 % of control | [1] 99 % of control | [2] 101 % of control

Cc1ccc2c(c1)C1(SC(C)C(=O)N1c1ccc(Br)cc1)C(=O)N2 (stereo not given)
inactive: dose: 60.0 mg/kg/injection, schedule: Q01DX005 (ip), vehicle: saline with Tween-80 94 % of control | dose: 120.0 mg/kg/injection, schedule: Q01DX005 (ip), vehicle: saline with Tween-80 96 % of control | dose: 240.0 mg/kg/injection, schedule: Q01DX005 (ip), vehicle: saline with Tween-80 97 % of control

Nc1cccc(S(=O)(=O)Nc2ncc(Cl)cn2)c1.[Ag]
inactive: [3] 93 % of control | dose: 100.0 mg/kg/injection, schedule: Q01DX009 (ip), vehicle: saline 108 % of control

Cc1ccc(S(=O)(=O)ON/N=c2\ccn(C)c3ccccc23)cc1
inactive: [4] 101 % of control | [5] 99 % of control | [6] 99 % of control

N#C/C(=N\N=C(/C#N)c1ccc(Cl)cc1)c1ccc(Cl)cc1
inactive: [7] 97 % of control | [8] 94 % of control | [9] 88 % of control

Cc1nc2ccc(CCN3CCN(c4ccccc4Cl)CC3)cc2[nH]1
inactive: [10] 100 % of control | [11] 108 % of control and 120 % of control | dose: 200.0 mg/kg/injection, schedule: Q01DX001 (ip), vehicle: Klucel (hydroxypropylcellulose) (HPC) 116 % of control and 93 % of control

CC(C)CCCC(C)C1CCC2C3CC=C4CC(OC(=O)C56C=CC(=O)C5C5C=CC6CC5)CCC4(C)C3CCC12C (stereo not given)
inactive: dose: 1.56 mg/kg/injection, schedule: Q01DX005 (ip), vehicle: distilled water + Tween-80 100 % of control | dose: 3.12 mg/kg/injection, schedule: Q01DX005 (ip), vehicle: distilled water + Tween-80 90 % of control | dose: 200.0 mg/kg/injection, schedule: Q01DX005 (ip), vehicle: distilled water + Tween-80 86 % of control

CN(N=O)C(=O)NCCNC(=O)C1OC(n2cnc3c(=O)[nH]cnc32)C(O)C1O (stereo not given)
inactive: [8] 106 % of control | [9] 109 % of control | dose: 400.0 mg/kg/injection, schedule: Q01DX005 (ip), vehicle: saline with Tween-80 115 % of control

C/C([O-])=c1\c(C)nn2ccc[n+]12
inactive: dose: 25.0 mg/kg/injection, schedule: Q01DX005 (ip), vehicle: saline with Tween-80 100 % of control | [7] 108 % of control | [8] 96 % of control | [9] 99 % of control

CCO/C=C1\SC(=S)N(c2ccco2)C1=O
inactive: dose: 100.0 mg/kg/injection, schedule: Q04DX003 (ip), vehicle: saline with Tween-80 118 % of control | [12] 118 % of control | dose: 400.0 mg/kg/injection, schedule: Q04DX003 (ip), vehicle: saline with Tween-80 104 % of control

O=C(c1ccccc1)C1C(=O)c2ccccc2C1=O
inactive: dose: 60.0 mg/kg/injection, schedule: Q01DX005 (ip), vehicle: saline 95 % of control | dose: 120.0 mg/kg/injection, schedule: Q01DX005 (ip), vehicle: saline 99 % of control | dose: 240.0 mg/kg/injection, schedule: Q01DX005 (ip), vehicle: saline 95 % of control

COC(=O)C1(C)N=C1N(C)C (stereo not given)
inactive: dose: 100.0 mg/kg/injection, schedule: Q04DX002 (ip), vehicle: saline 92 % of control | dose: 200.0 mg/kg/injection, schedule: Q04DX002 (ip), vehicle: saline 90 % of control | dose: 400.0 mg/kg/injection, schedule: Q04DX002 (ip), vehicle: saline 93 % of control

CC1(C)N=C(N)N=C(N)N1c1cccc(CC(=O)Nc2ccc(S(=O)(=O)F)cc2)c1
inactive: [12] 122 % of control

C#CCN1CC(OC)Nc2c(O)cccc2C1=O (stereo not given) (tested in a mixture with another compound)
inactive: dose: 2.5 mg/kg/injection, schedule: Q01DX005 (ip), vehicle: water 113 % of control | dose: 5.0 mg/kg/injection, schedule: Q01DX005 (ip), vehicle: water 110 % of control and 113 % of control | dose: 10.0 mg/kg/injection, schedule: Q01DX005 (ip), vehicle: water 123 % of control | dose: 20.0 mg/kg/injection, schedule: Q01DX005 (ip), vehicle: water 119 % of control and 123 % of control

COC(=O)CCC1=C(C)c2cc3[nH]c(cc4[nH]c(cc5nc(cc1n2)C(CCC(=O)OC)=C5C)c(C1CC1C(=O)OC)c4C)c(C1CC1C(=O)OC)c3C (stereo not given)
inactive: [1] 104 % of control | [2] 104 % of control | [13] 109 % of control

Cn1c(=O)c2[nH]c([N+](=O)[O-])nc2n(C)c1=O
inactive: [4] 96 % of control | [5] 100 % of control | [6] 100 % of control

C=C(C)C(=O)OC1CCC2(C)C(CCC3C2CCC2(C)C(c4ccc(=O)oc4)CCC32O)C1 (stereo not given)
inactive: dose: 12.5 mg/kg/injection, schedule: Q01DX009 (ip), vehicle: saline 86 % of control | dose: 25.0 mg/kg/injection, schedule: Q01DX009 (ip), vehicle: saline 98 % of control | [3] 101 % of control and 94 % of control | dose: 200.0 mg/kg/injection, schedule: Q01DX009 (ip), vehicle: saline 95 % of control

C1=C(/N=NNc2ccccc2)CCCCCC/1
inactive: dose: 50.0 mg/kg/injection, schedule: Q01DX005 (ip), vehicle: Klucel + Tween-80 102 % of control | dose: 100.0 mg/kg/injection, schedule: Q01DX005 (ip), vehicle: Klucel + Tween-80 100 % of control | dose: 200.0 mg/kg/injection, schedule: Q01DX005 (ip), vehicle: Klucel + Tween-80 104 % of control

CC(C)(C)N1OC2C=CC1CC2O (stereo not given) (tested in a mixture with another compound)
inactive: dose: 25.0 mg/kg/injection, schedule: Q01DX001 (ip), vehicle: Klucel (hydroxypropylcellulose) (HPC) 113 % of control | [10] 114 % of control | [11] 107 % of control

O=C(OCCCl)c1ccccc1NC(=O)N1CCOCC1
inactive: [1] 105 % of control | [2] 99 % of control | [13] 98 % of control

N#CC1C(=O)NC(=O)C(C#N)C1c1ccccc1 (stereo not given)
inactive: [14] 102 % of control | [15] 101 % of control | [16] 100 % of control

c1ccc(-c2nc(-c3ccc4c(c3)OCO4)[nH]c2-c2ccccc2)cc1
inactive: [14] 97 % of control | [15] 114 % of control | [16] 112 % of control
